Assay results: patent US9676784B2, “Fused imidazolyl derivatives, their preparation and use as medicaments” (LABORATORIOS DEL DR. ESTEVE S.A., priority 2013, dated 2017)
pKi: −log10 of the molar value. Structures can show the parent of a compound that is named as a salt.

Biological target: σ1-receptor (Cavia porcellus, UniProt Q60492)
Assay: Binding assay for the σ1-receptor, [3H]-(+)-pentazocine, guinea pig brain membranes
Procedure: Guinea pig brains were homogenized in 10 vols. (w/v) of Tris-HCl 50 mM 0.32 M sucrose, pH 7.4, with a Kinematica Polytron PT 3000 at 15000 r.p.m. for 30 s. The homogenate was centrifuged at 1000 g for 10 min at 4° C. and the supernatants collected and centrifuged again at 48000 g for 15 min at 4° C. The pellet was resuspended in 10 volumes of Tris-HCl buffer (50 mM, pH 7.4), incubated at 37° C. for 30 min, and centrifuged at 48000 g for 20 min at 4° C. Following this, the pellet was re-suspended in fresh Tris-HCl buffer (50 mM, pH 7.4) and stored on ice until use.
The radioligand used was [^3H]-(+)-pentazocine at 5.0 nM and the final volume was 200 μl. The incubation was initiated with the addition of 100 μl of membrane at a final tissue concentration of approximately 5 mg tissue net weight/mL and the incubation time was 150 m. at 37° C. After incubation, the membranes were collected onto pretreated glass fiber filterplate (MultiScreen-FC, Millipore), with polyethylenimine 0.1%. […] Nonspecific binding was determined with 1 μM haloperidol.

σ1-receptor, sequence (Q60492 whole entry): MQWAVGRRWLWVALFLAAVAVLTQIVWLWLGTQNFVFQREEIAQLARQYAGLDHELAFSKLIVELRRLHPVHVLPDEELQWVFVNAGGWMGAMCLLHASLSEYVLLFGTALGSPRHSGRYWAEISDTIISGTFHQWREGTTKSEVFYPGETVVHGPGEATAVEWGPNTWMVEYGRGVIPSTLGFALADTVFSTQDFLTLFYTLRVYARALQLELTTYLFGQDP

Compound	pKi
CCC(=O)N(c1cccc(O)c1)c1ncc2n1CCN(Cc1ccccc1)C2 [Example 24, N-(7-benzyl-5,6,7,8-tetrahydroimidazo[1,5-a]pyrazin-3-yl)-N-(3-hydroxyphenyl)propionamide]	6.91
Fc1ccc(Nc2ncc3n2CCN(Cc2ccc(F)cn2)C3)cc1 [Example 37, N-(4-fluorophenyl)-7-((5-fluoropyridin-2-yl)methyl)-5,6,7,8-tetrahydroimidazo[1,5-a]pyrazin-3-amine]	6.53
Fc1c(Cl)cccc1Nc1ncc2n1CCN(Cc1ccccc1)C2 [Example 9, 7-benzyl-N-(3-chloro-2-fluorophenyl)-5,6,7,8-tetrahydroimidazo[1,5-a]pyrazin-3-amine]	6.63
Fc1ccc(Nc2ncc3n2CCN(Cc2ccc(F)nc2)C3)cc1 [Example 38, N-(4-fluorophenyl)-7-((6-fluoropyridin-3-yl)methyl)-5,6,7,8-tetrahydroimidazo[1,5-a]pyrazin-3-amine]	6.51
CCC(=O)N(c1cccc(O)c1)c1ncc2n1CCN(CCc1ccccc1)C2 [Example 25, N-(3-hydroxyphenyl)-N-(7-phenethyl-5,6,7,8-tetrahydroimidazo[1,5-a]pyrazin-3-yl)propionamide]	6.45
COc1ccc(CN2CCn3c(cnc3Nc3ccc(F)cc3)C2)cn1 [Example 39, N-(4-fluorophenyl)-7-((6-methoxypyridin-3-yl)methyl)-5,6,7,8-tetrahydroimidazo[1,5-a]pyrazin-3-amine]	6.43
Fc1ccc(Nc2ncc3n2CCCN(CC2CCOCC2)C3)cc1 [Example 16, N-(4-fluorophenyl)-8-((tetrahydro-2H-pyran-4-yl)methyl)-6,7,8,9-tetrahydro-5H-imidazo[1,5-a][1,4]diazepin-3-amine]	6.76
CCNC(=O)Nc1ncc2n1CCN(CC1CCCCC1)C2 [Example 2, 1-(7-(Cyclohexylmethyl)-5,6,7,8-tetrahydroimidazo[1,5-a]pyrazin-3-yl)-3-ethylurea]	6.97
c1ccc(Nc2ncc3n2CCN(CC2CCOCC2)C3)cc1 [Example 12, N-phenyl-7-((tetrahydro-2H-pyran-4-yl)methyl)-5,6,7,8-tetrahydroimidazo[1,5-a]pyrazin-3-amine]	6.59
CCNC(=O)Nc1ncc2n1CCCN(CC1CCCCC1)C2 [Example 1, 1-(8-(Cyclohexylmethyl)-6,7,8,9-tetrahydro-5H-imidazo[1,5-a][1,4]diazepin-3-yl)-3-ethylurea]	6.75
COc1cccc(Nc2ncc3n2CCCN(CC2CCOCC2)C3)c1 [Example 15, N-(3-methoxyphenyl)-8-((tetrahydro-2H-pyran-4-yl)methyl)-6,7,8,9-tetrahydro-5H-imidazo[1,5-a][1,4]diazepin-3-amine]	6.58
Oc1cccc(Nc2ncc3n2CCN(CCc2ccccc2)C3)c1 [Example 34, 3-(7-phenethyl-5,6,7,8-tetrahydroimidazo[1,5-a]pyrazin-3-ylamino)phenol]	6.77
c1ccc(CCN2CCn3c(cnc3Nc3ccccc3)C2)cc1 [Example 31, 7-Phenethyl-N-phenyl-5,6,7,8-tetrahydroimidazo[1,5-a]pyrazin-3-amine]	7.00

Molecules with a higher pKi, results first:

pKi	Compound
7.15	CCCNC(=O)Nc1ncc2n1CCN(CC1CCCCC1)C2 [Example 3, 1-(7-(Cyclohexylmethyl)-5,6,7,8-tetrahydroimidazo[1,5-a]pyrazin-3-yl)-3-propylurea]
7.17	Fc1ccc(Nc2ncc3n2CCN(C2CCCCC2)C3)cc1 [Example 40, 7-cyclohexyl-N-(4-fluorophenyl)-5,6,7,8-tetrahydroimidazo[1,5-a]pyrazin-3-amine]
7.17	Fc1ccc(CN2CCn3c(cnc3Nc3ccc(F)cn3)C2)cc1 [Example 20, 7-(4-fluorobenzyl)-N-(5-fluoropyridin-2-yl)-5,6,7,8-tetrahydroimidazo[1,5-a]pyrazin-3-amine]
7.20	Oc1cccc(Nc2ncc3n2CCN(Cc2ccccc2)C3)c1 [Example 19, 3-(7-benzyl-5,6,7,8-tetrahydroimidazo[1,5-a]pyrazin-3-ylamino)phenol]
7.36	Fc1ccc(Nc2ncc3n2CCN(Cc2ccccc2)C3)cc1 [Example 21, 7-benzyl-N-(4-fluorophenyl)-5,6,7,8-tetrahydroimidazo[1,5-a]pyrazin-3-amine]
7.41	c1ccc(Cc2ncc3n2CCN(CC2CCCCC2)C3)cc1 [Example 28, 3-Benzyl-7-(cyclohexylmethyl)-5,6,7,8-tetrahydroimidazo[1,5-a]pyrazine trifluoroacetate]
7.42	c1ccc(CNc2ncc3n2CCN(CC2CCCCC2)C3)cc1 [Example 27, N-Benzyl-7-(cyclohexylmethyl)-5,6,7,8-tetrahydroimidazo[1,5-a]pyrazin-3-amine]
7.43	Fc1ccc(Nc2ncc3n2CCN(Cc2ccc(F)cc2F)C3)cc1 [Example 35, 7-(2,4-difluorobenzyl)-N-(4-fluorophenyl)-5,6,7,8-tetrahydroimidazo[1,5-a]pyrazin-3-amine]
7.59	Fc1cc(F)cc(Nc2ncc3n2CCCN(CC2CCOCC2)C3)c1 [Example 18, N-(3,5-difluorophenyl)-8-((tetrahydro-2H-pyran-4-yl)methyl)-6,7,8,9-tetrahydro-5H-imidazo[1,5-a][1,4]diazepin-3-amine]
7.66	Fc1ccc(Cc2ncc3n2CCN(CC2CCCCC2)C3)cc1 [Example 30, 7-(cyclohexylmethyl)-3-(4-fluorobenzyl)-5,6,7,8-tetrahydroimidazo[1,5-a]pyrazine hydrochloride]
7.68	Fc1ccc(Nc2ncc3n2CCN(CC2CCC(F)(F)CC2)C3)cc1 [Example 36, 7-((4,4-difluorocyclohexyl)methyl)-N-(4-fluorophenyl)-5,6,7,8-tetrahydroimidazo[1,5-a]pyrazin-3-amine]
7.85	Fc1c(Cl)cccc1Nc1ncc2n1CCCN(CC1CCOCC1)C2 [Example 17, N-(3-chloro-2-fluorophenyl)-8-((tetrahydro-2H-pyran-4-yl)methyl)-6,7,8,9-tetrahydro-5H-imidazo[1,5-a][1,4]diazepin-3-amine]
7.89	COc1cccc(Nc2ncc3n2CCN(CC2CCCCC2)C3)c1 [Example 7, 7-(cyclohexylmethyl)-N-(3-methoxyphenyl)-5,6,7,8-tetrahydroimidazo[1,5-a]pyrazin-3-amine]
7.92	Fc1cc(F)cc(Nc2ncc3n2CCN(CC2CCCCC2)C3)c1 [Example 6, 7-(cyclohexylmethyl)-N-(3,5-difluorophenyl)-5,6,7,8-tetrahydroimidazo[1,5-a]pyrazin-3-amine]
8.09	c1ccc(Nc2ncc3n2CCN(CC2CCCCC2)C3)cc1 [Example 5, 7-(Cyclohexylmethyl)-N-phenyl-5,6,7,8-tetrahydroimidazo[1,5-a]pyrazin-3-amine]
8.10	Fc1ccc(Nc2ncc3n2CCN(CC2CCCCC2)C3)cc1 [Example 8, 7-(cyclohexylmethyl)-N-(4-fluorophenyl)-5,6,7,8-tetrahydroimidazo[1,5-a]pyrazin-3-amine]
